Values of other authors in patent US20230240985A1, “STABLE PHARMACEUTICAL COMPOSITION OF TOPIRAMATE” (ALKEM LABORATORIES LIMITED, priority 2022, published 2023).

- solubility in organic solvents (acetone, chloroform, dimethylsulfoxide, and ethanol): freely soluble
- solubility in alkaline solutions (alkaline solutions containing sodium hydroxide or sodium phosphate, pH of 9 to 10): most soluble
- stability in aqueous solution (aqueous solution): not stable
- pH of saturated solution (saturated solution): 6.3
SMILES: CC1(C)O[C@@H]2[C@@H](CO[C@@]3(COS(N)(=O)=O)OC(C)(C)O[C@@H]23)O1 [Topiramate, 2,3:4,5-Di-O-isopropylidine-β-D-fructopyranose sulfamate]
